Measurements taken from PMC6349869, “The palladacycle complex AJ-5 induces apoptotic cell death while reducing autophagic flux in rhabdomyosarcoma cells” (Cell Death Discovery, 2019).

Legend:
Assay type in all cases: cell-based, human
AX-OH-1 cells = assay: MTT cell viability assay, AX-OH-1; conditions: AX-OH-1 (aRMS), 48 h
Experimental: RH30 human aRMS cells (kindly provided by Associate Professor Judith Davie, Southern Illinois University), AX-OH-1 human aRMS and FL-OH-1 human eRMS cells (kindly provided by Professor Stefan Bath, University of Cape Town) were cultured in Roswell Park Memorial Institute Medium (RPMI)-1640 (Sigma Aldrich, Missouri, USA). […] Cell morphology was monitored using an Olympus CKX41 inverted microscope (MSAC Ltd, UK) and imaged with an EVOS™ XL AMEX1000 Core Imaging System (Thermo Fisher Scientific, Massachusetts, USA).
Cells were seeded in 96-well plates and treated the next day with a range of AJ-5 concentrations (0.1–1.0 μM) or vehicle ([…]) for 48 h. Cell viability was measured using the 3-(4,5-dimethylthiazol-2-yl)-2,5-diphenyl-trazolium bromide (MTT) assay (11465007001; Sigma Aldrich) according to the manufacturer’s instructions. Mean cell viability was calculated as a percentage of the mean vehicle control. At least three independent experiments in quadruplicate were performed from which the half maximal inhibitory concentration (IC50) was determined using GraphPad Prism version 6.0 (GraphPad Software, California, USA). The selectivity index (SI) was determined by dividing the IC50 of a normal cell line by the IC50 of a cancer cell line.

[1] = test system: SW1353, SW872, SW982, HT1080 and MG-63 cells; assay: Clonogenic assay, sarcoma subtypes; conditions: ¼ IC50, 24 h, all sarcoma subtypes
Experimental: Cells were seeded in 6-well plates and treated the following day with IC50, ½ IC50, ¼ IC50 AJ-5 and vehicle. After 24 h, 800–4000 cells were seeded in 35 mm dishes in drug-free medium. Formation of colonies were monitored and after 7–21 days cells were fixed with 3:1 methanol:acetic acid and stained with 0.5% crystal violet (Sigma Aldrich) in 100% methanol. Colonies were imaged and percentage colony area was determined using ImageJ v1.50i[58] and the plugin ColonyArea[59]. Colony area was determined for each drug concentration and expressed as a percentage of vehicletreated control.
Fig. S2 AJ-5 is cytotoxic in a range of sarcoma subtypes. […] Graphs show mean cell viability as a percentage of vehicle control ± SEM for each concentration of AJ-5 determined from three independent experiments performed in quadruplicate. […] (B) Selectivity indices (SIs) were determined for each cell line by dividing the IC50 of each non-malignant cell line (Fig. 1C) including normal fibroblast cell lines (FG0 and DMB) and mesenchymal stem cell line (A10021501) by the IC50 of each sarcoma cell line. […] Colonies were stained with crystal violet and images from three independent repeats were quantified using the ImageJ plugin ColonyArea. […] Data was analysed using GraphPad Prism 6.0 and a parametric unpaired t-test was performed *p<0.05, **p<0.01, ***p<0.001.

SW872 cells = assay: MTT cell viability assay, SW872 liposarcoma; conditions: 48 h
RH30 and RD cells = assay: Annexin V-FITC/PI assay; conditions: IC50
Experimental: Cells were seeded, trypsinized, washed and counted as described for cell cycle analysis. The FITC Annexin V/Dead Cell Apoptosis kit (V13242; Thermo Fisher Scientific) was used according to the manufacturer's instructions. A negative control of unstained cells and positive controls of cells treated with 3% formaldehyde for 30 min on ice and stained with either PI or Annexin V were used to gate the flow cytometer for viable, early apoptotic, late apoptotic, and necrotic cell populations. Samples were subjected to FACS analyses as described for cell cycle analysis. Data were obtained and analysed using CellQuest Pro version 5.2.1. software.

For CC(C)c1cccc(C(C)C)c1[N+]1=Cc2cccc[c]2[Pd-2]1([Cl])[P+](CC[P+](c1ccccc1)(c1ccccc1)[Pd-2]1([Cl])[c]2ccccc2C=[N+]1c1c(C(C)C)cccc1C(C)C)(c1ccccc1)c1ccccc1 (stereo not shown) [AJ-5], the IC50 (AX-OH-1 cells) was no more than 200 nM, the “Ability of sarcoma cells to survive and proliferate (colony area)” value [1] was “significantly reduced” and the IC50 (SW872 cells) was less than 300 nM. For the same molecule, the “Cell death (Annexin V-FITC/PI)” value (RH30 and RD cells) was “induces apoptotic and necrotic cell death”.
